Experimental data as given in US20250171457A1, “NITROGEN-CONTAINING HETEROCYCLIC COMPOUND HAVING NRF2 ACTIVATION EFFECT” (CHUGAI SEIYAKU KABUSHIKI KAISHA, priority 2022, published 2025).

Each molecule was assayed on Nrf2 transcriptional activity (pARE-Luc reporter) in HepG2 cells (assay: In vitro Nrf2 transcriptional activity measurement by ARE-dependent reporter assay in HepG2 cell). Conditions: HepG2 cells, pARE-Luc reporter, 4 hours; 100% = Example 1-54 or Example 17-23 at 3.75 μM (repeat print of Table 20-1).
Format: cell-based, human
Method: Test Example 1: In Vitro Nrf2 Transcriptional Activity Measurement by ARE-Dependent Reporter Assay in HepG2 Cell
A human liver cancer-derived cell line HepG2 was transfected with pGL4.37 vector (pARE-Luc, Promega Corp.) and incubated overnight at 37° C. in a humidified atmosphere containing 5% CO2. The cells were dissociated by trypsin treatment, inoculated to a 384-well plate supplemented with a test compound, and incubated at 37° C. for 4 hours. Then, Bright-Glo Reagent (Promega Corp.) was added to the plate, and luciferase activity was measured with Envision plate reader.
Luciferase activity obtained through the action of the compound of Example 1-54 or Example 17-23 at a concentration of 3.75 μM was defined as 100%. The luciferase activity of each well was converted to a response rate (%). The dose-response curve of the compound of each Example was prepared to calculate a 50% effective concentration (EC50).
With `Cc1nc(N2CC3(C2)OCC(C)(C)CO3)cc(Cl)c1C(=O)N1COc2c(cccc2-c2cc(N3C4CCC3COC4)c(C(=O)O)cc2F)C1` [Compound 19-9, 4-[3-[4-Chloro-6-(7,7-dimethyl-5,9-dioxa-2-azaspiro[3.5]nonan-2-yl)-2-methylpyridine-3-carbonyl]-2,4-dihydro-1,3-benzoxazin-8-yl]-5-fluoro-2-(3-oxa-8-azabicyclo[3.2.1]octan-8-yl)benzoic acid] the EC50 was 1.4 nM.

Same assay, conditions: Homo sapiens; HepG2 cells transfected with pARE-Luc, 4 hours at 37° C.; luciferase activity of Example 1-54 or Example 17-23 at 3.75 μM defined as 100%
`Cn1nc2cc(-c3cc(Cl)c(C(=O)N4COc5c(cccc5-c5cc(N6C7CCC6COC7)c(C(=O)O)cc5F)C4)c(Cl)c3)cnc2n1` [Compound 3-20, 4-[3-[2,6-Dichloro-4-(2-methyltriazolo[4,5-b]pyridin-6-yl)benzoyl]-2,4-dihydro-1,3-benzoxazin-8-yl]-5-fluoro-2-(3-oxa-8-azabicyclo[3.2.1]octan-8-yl)benzoic acid] showed an EC50 of 9 nM.
`CO[C@H]1C[C@H]2CC[C@@H](C1)N2c1cc(Cl)c(C(=O)N2COc3c(cccc3-c3cc(N4C5CCC4COC5)c(C(=O)O)cc3F)C2)c(Cl)c1` (racemic) [Compound 6-11, 4-[3-[2,6-Dichloro-4-[rac-(1R,3r,5S)-3-methoxy-8-azabicyclo[3.2.1]octan-8-yl]benzoyl]-2,4-dihydro-1,3-benzoxazin-8-yl]-5-fluoro-2-(3-oxa-8-azabicyclo[3.2.1]octan-8-yl)benzoic acid] showed an EC50 of 1.5 nM.
`CN1CCN(c2cc(Cl)c(C(=O)N3COc4c(cccc4-c4cc(N5C6CCC5COC6)c(C(=O)O)cc4F)C3)c(Cl)c2)CC1C(F)(F)F` (stereo not shown) [Compound 9-23, 4-[3-[2,6-Dichloro-4-[4-methyl-3-(trifluoromethyl)piperazin-1-yl]benzoyl]-2,4-dihydro-1,3-benzoxazin-8-yl]-5-fluoro-2-(3-oxa-8-azabicyclo[3.2.1]octan-8-yl)benzoic acid] gave an EC50 of 3.1 nM.
`O=C(O)c1cc(F)c(-c2cccc3c2OCN(C(=O)c2c(Cl)cc(N4CCN(CCO)CC4)cc2Cl)C3)cc1N1CCOCC1` [Compound 1-58, 4-[3-[2,6-Dichloro-4-[4-(2-hydroxyethyl)piperazin-1-yl]benzoyl]-2,4-dihydro-1,3-benzoxazin-8-yl]-5-fluoro-2-morpholin-4-ylbenzoic acid] was tested, and the EC50 was 4.2 nM.
In the case of `CN1CCN(c2cc(Cl)c(C(=O)N3COc4c(ccc(F)c4-c4cc(N5CCOCC5)c(C(=O)O)cc4F)C3)c(Cl)c2)CC1` [Compound 1-80, 4-[3-[2,6-Dichloro-4-(4-methylpiperazin-1-yl)benzoyl]-7-fluoro-2,4-dihydro-1,3-benzoxazin-8-yl]-5-fluoro-2-morpholin-4-ylbenzoic acid], the EC50 is reported as 1.9 nM.
Molecule `O=C(O)c1cc(F)c(-c2cccc3c2OCN(C(=O)c2c(Cl)cc(N4CC5(C4)OCC4(CCC4)CO5)cc2Cl)C3)cc1N1C2CCC1COC2` [Compound 5-8, 4-[3-[2,6-Dichloro-4-(6,11-dioxa-9-azadispiro[3.2.37.24]dodecan-9-yl)benzoyl]-2,4-dihydro-1,3-benzoxazin-8-yl]-5-fluoro-2-(3-oxa-8-azabicyclo[3.2.1]octan-8-yl)benzoic acid] has an EC50 of 2 nM.
`CN1CCN(c2cc(Cl)c(C(=O)N3COc4c(cccc4-c4cc(N5CCCC5)c(C(=O)O)cc4F)C3)c(Cl)c2)CC1` [Compound 18-6, 4-[3-[2,6-Dichloro-4-(4-methylpiperazin-1-yl)benzoyl]-2,4-dihydro-1,3-benzoxazin-8-yl]-5-fluoro-2-pyrrolidin-1-ylbenzoic acid] was tested, and the EC50 was 10 nM.
`O=C(O)c1cc(F)c(-c2cccc3c2OCN(C(=O)c2c(Cl)cc(N4CC5(CC(O)C5)C4)cc2Cl)C3)cc1N1C2CCC1COC2` [Compound 1-6, 4-[3-[2,6-Dichloro-4-(6-hydroxy-2-azaspiro[3.3]heptan-2-yl)benzoyl]-2,4-dihydro-1,3-benzoxazin-8-yl]-5-fluoro-2-(3-oxa-8-azabicyclo[3.2.1]octan-8-yl)benzoic acid] gave an EC50 of 9.6 nM.
`CO[C@@H]1COC2(C1)CN(c1cc(Cl)c(C(=O)N3COc4c(cccc4-c4cc(N5C6CCC5COC6)c(C(=O)O)cc4F)C3)c(Cl)c1)C2` [Compound 1-22, 4-[3-[2,6-Dichloro-4-[(7S)-7-methoxy-5-oxa-2-azaspiro[3.4]octan-2-yl]benzoyl]-2,4-dihydro-1,3-benzoxazin-8-yl]-5-fluoro-2-(3-oxa-8-azabicyclo[3.2.1]octan-8-yl)benzoic acid] gave an EC50 of 2.1 nM.
Molecule `C[C@@H]1CN(C)CCN1c1cc(Cl)c(C(=O)N2COc3c(cccc3-c3cc(N4C5CCC4COC5)c(-c4n[nH]c(=O)o4)cc3F)C2)c(Cl)c1` [Compound 16-3, 5-[4-[3-[2,6-Dichloro-4-[(2R)-2,4-dimethylpiperazin-1-yl]benzoyl]-2,4-dihydro-1,3-benzoxazin-8-yl]-5-fluoro-2-(3-oxa-8-azabicyclo[3.2.1]octan-8-yl)phenyl]-3H-1,3,4-oxadiazol-2-one] has an EC50 of 17 nM.
With `COc1cc(C(=O)N2COc3c(cccc3-c3cc(N4CCOCC4)c(C(=O)O)cc3F)C2)c(Cl)cc1N1CCN(C)CC1` [Compound 1-72, 4-[3-[2-Chloro-5-methoxy-4-(4-methylpiperazin-1-yl)benzoyl]-2,4-dihydro-1,3-benzoxazin-8-yl]-5-fluoro-2-morpholin-4-ylbenzoic acid] the EC50 was 5.8 nM.
In the case of `O=C(O)c1cc(F)c(-c2cccc3c2OCN(C(=O)c2c(Cl)cc(N4CC(OC(F)(F)F)C4)cc2Cl)C3)cc1N1C2CCC1COC2` [Compound 1-14, 4-[3-[2,6-Dichloro-4-[3-(trifluoromethoxy)azetidin-1-yl]benzoyl]-2,4-dihydro-1,3-benzoxazin-8-yl]-5-fluoro-2-(3-oxa-8-azabicyclo[3.2.1]octan-8-yl)benzoic acid], the EC50 is reported as 4.4 nM.
`CC(C)N1CCN(c2cc(Cl)c(C(=O)N3COc4c(cccc4-c4ccc(C(=O)O)c(N5CCOCC5)c4)C3)c(Cl)c2)CC1` [Compound 1-67, 4-[3-[2,6-Dichloro-4-(4-propan-2-ylpiperazin-1-yl)benzoyl]-2,4-dihydro-1,3-benzoxazin-8-yl]-2-morpholin-4-ylbenzoic acid] was tested, and the EC50 was 4.4 nM.
Molecule `O=C(O)c1cc(F)c(-c2cccc3c2OCN(C(=O)c2c(Cl)cc(N4CC5(COCCO5)C4)cc2Cl)C3)cc1N1C2CCC1COC2` [Compound 16-15, 4-[3-[2,6-Dichloro-4-(5,8-dioxa-2-azaspiro[3.5]nonan-2-yl)benzoyl]-2,4-dihydro-1,3-benzoxazin-8-yl]-5-fluoro-2-(3-oxa-8-azabicyclo[3.2.1]octan-8-yl)benzoic acid] has an EC50 of 3 nM.
`CC(C)Sc1cc(Cl)c(C(=O)N2COc3c(cccc3-c3ccc(C(=O)O)c(N4CCOCC4)c3)C2)c(Cl)c1` [Compound 16-10, 4-[3-(2,6-Dichloro-4-propan-2-ylsulfanylbenzoyl)-2,4-dihydro-1,3-benzoxazin-8-yl]-2-morpholin-4-ylbenzoic acid] gave an EC50 of 9.3 nM.
`C[C@@H]1CN(C2COC2)CCN1c1cc(Cl)c(C(=O)N2COc3c(cccc3-c3cc(N4C5CCC4COC5)c(C(=O)O)cc3F)C2)c(Cl)c1` [Compound 9-16, 4-[3-[2,6-Dichloro-4-[(2R)-2-methyl-4-(oxetan-3-yl)piperazin-1-yl]benzoyl]-2,4-dihydro-1,3-benzoxazin-8-yl]-5-fluoro-2-(3-oxa-8-azabicyclo[3.2.1]octan-8-yl)benzoic acid] was tested, and the EC50 was 4.8 nM.
With `C[C@@H]1[C@@H](N2CCOCC2)CN1c1cc(Cl)c(C(=O)N2COc3c(cccc3-c3cc(N4C5CCC4COC5)c(C(=O)O)cc3F)C2)c(Cl)c1` [Compound 1-84, 4-[3-[2,6-Dichloro-4-[(2R,3S)-2-methyl-3-morpholin-4-ylazetidin-1-yl]benzoyl]-2,4-dihydro-1,3-benzoxazin-8-yl]-5-fluoro-2-(3-oxa-8-azabicyclo[3.2.1]octan-8-yl)benzoic acid] the EC50 was 2.4 nM.
`O=C(O)c1cc(F)c(-c2cccc3c2OCN(C(=O)c2c(Cl)cc(N4CCN(CC(F)F)CC4)cc2Cl)C3)cc1N1C2CCC1COC2` [Compound 8-2, 4-[3-[2,6-Dichloro-4-[4-(2,2-difluoroethyl)piperazin-1-yl]benzoyl]-2,4-dihydro-1,3-benzoxazin-8-yl]-5-fluoro-2-(3-oxa-8-azabicyclo[3.2.1]octan-8-yl)benzoic acid] was tested, and the EC50 was 4 nM.
With `COCCN1CCN(c2cc(Cl)c(C(=O)N3COc4c(cccc4-c4cc(N5C6CCC5COC6)c(C(=O)O)cc4F)C3)c(Cl)c2)CC1` [Compound 14-9, 4-[3-[2,6-Dichloro-4-[4-(2-methoxyethyl)piperazin-1-yl]benzoyl]-2,4-dihydro-1,3-benzoxazin-8-yl]-5-fluoro-2-(3-oxa-8-azabicyclo[3.2.1]octan-8-yl)benzoic acid] the EC50 was 3.7 nM.
`Cc1c(C(CC(=O)O)c2cccc3c2CON(C(=O)c2c(Cl)cc(-c4cnn(C)c4)cc2Cl)C3)ccc2c1nnn2C` (stereo not shown) [Compound 17-16, 3-[3-[2,6-Dichloro-4-(1-methylpyrazol-4-yl)benzoyl]-1,4-dihydro-2,3-benzoxazin-8-yl]-3-(1,4-dimethylbenzotriazol-5-yl)propanoic acid] showed an EC50 of 74 nM.
With `CN1CCN(c2cc(Cl)c(C(=O)N3CSc4c(cccc4-c4cc(N5CCOCC5)c(C(=O)O)cc4F)C3)c(Cl)c2)CC1` [Compound 1-68, 4-[3-[2,6-Dichloro-4-(4-methylpiperazin-1-yl)benzoyl]-2,4-dihydro-1,3-benzothiazin-8-yl]-5-fluoro-2-morpholin-4-ylbenzoic acid] the EC50 was 8.1 nM.
